Literature values, collected in patent publication US7459223B2, “Electrochemical methods for generation of a biological proton motive force” (Board of Trustees of Michigan State University, priority 1998, dated 2008).
Read-outs that look alike come from different tables or passages of the source.

Settings: cited from earlier work

Row | Compound | E0′ (redox potential) (Table 1, redox mediators) | E0′ (redox potential)
1 | NC(=O)c1ccc[n+]([C@@H]2O[C@H](COP(=O)(O)OP(=O)(O)OC[C@H]3O[C@@H](n4cnc5c(N)ncnc54)[C@H](O)[C@@H]3O)[C@@H](O)[C@H]2O)c1 [NAD^+] | −0.32 V | –
2 | Menaquinone | −0.074 V | −0.073 volt
